Data taken from publication PMC9525908, “α-Crystallin chaperone mimetic drugs inhibit lens γ-crystallin aggregation: Potential role for cataract prevention” (The Journal of Biological Chemistry, 2022).
“Also recorded” adds a separate entry of the source.

Tests used:
Format in all cases: biochemical
[1] = biological target: T1, WT-HγD crystallin (Homo sapiens, UniProt P07320); experiment: Thermal unfolding of WT-HγD by fluorescence ratio (Tm); details: 100 μM agent, 360/320 nm ratio; 78 ± 0.1 °C without agent
T1 construct: made in house; host or cells: E. coli BL21(DE3) pLysS, pET3d vector
T1 sequence (P07320 1-174): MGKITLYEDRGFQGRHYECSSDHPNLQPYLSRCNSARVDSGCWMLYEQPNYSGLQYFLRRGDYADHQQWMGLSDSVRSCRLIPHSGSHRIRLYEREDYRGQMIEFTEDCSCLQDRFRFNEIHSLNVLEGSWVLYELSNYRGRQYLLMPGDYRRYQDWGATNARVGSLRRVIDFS
Excerpt: His-tag free recombinant HγD crystallin produced in Escherichia coli using pET3d or pET17b expression vector was used to investigate the effects of compounds C and G against thermal-induced unfolding and aggregate formation. The antiaggregation potency of drug C and G was reconfirmed by dynamic light scattering (DLS) (Fig. 2A). […] There is a decrease in the size of aggregates from as high as 7261 nm without drugs to 30.5 nm with drug C and 84.9 nm with drug G. Drug M has moderate activity with mean aggregate size of 569 nm radius (Table S2). […] Furthermore, we investigated whether these drugs can prevent thermal unfolding of HγD (Fig. 2C). […] It is the temperature at which 50% of the protein unfolds.
(§1) Thermal denaturation study was monitored using fluorescence spectroscopy. Protein solutions (10 μM) in the presence and absence of drugs or bis-ANS (100 μM) were heated continuously from 30 to 95 °C, and the fluorescence data were collected every 5 °C after 1 min equilibration at the given temperature. Unfolding data were fit to Greene and Pace’s two-state model ([82]) using GraphPad Prism software (GraphPad Software, Inc).

[2] = biological target: T2, HγD-ox (Homo sapiens, UniProt P07320); experiment: Thermal unfolding (Tm) of oxidized HγD; details: 100 μM agent, 360/320 nm ratio; 68 ± 0.07 °C without agent
T2 construct: made in house; host or cells: Escherichia coli BL21(DE3) pLysS, pET3d vector
T2 sequence (P07320 1-174): T1 sequence (P07320 1-174)
Excerpt: (§2) In postsubmission experiments, we attempted to find mechanistic clues relevant to the use of an H2O2 oxidation step prior to the thermal stress used during the initial drug screen. For this reason, we did a comparative study of oxidized (HγD-ox) versus native HγD (HyD-nat), hypothesizing that bis-ANS would both act like the drugs and provide information on the role of exposed hydrophobicity ([40]). HγD was oxidized in diethylenetriaminepentaacetic acid […] phosphate buffer to facilitate hydroxyl radical formation and protein damage, followed by dialysis against DTPA-treated buffer to eliminate the known proaggregating effects of divalent metals ([32]) in the subsequent steps. […] Overall protective effects were more pronounced for the oxidized than nonoxidized form of HγD. […] In the hope to obtain clues on the impact of bis-ANS, drugs C, G, and M on protein aggregation status, native PAGE was performed (Fig. 3G). Polymers greater than 250 kD are present in unheated HγD-nat but only the size of 75 to 100 kD in HγD-ox. […] Other techniques will be needed to assess the relationship between drugs and aggregate size.
as §1

[3] = biological target: T2, HγD-ox; experiment: Turbidity (600 nm) of oxidized HγD heated 10 min at 72 °C; details: 1.4 mg/ml with DTPA, 100 and 500 μM bis-ANS, 100 μM drug C, 500 μM drug M
Excerpt: as §2

In the case of `O=S(=O)(O)c1cccc2c(-c3ccc(Nc4ccccc4)c4c(S(=O)(=O)O)cccc34)ccc(Nc3ccccc3)c12` [bis-ANS, bis-8-anilino-1-naphthalene sulfonic acid], the “Tm of HγD-nat” value [1] is reported as 82 ± 0.02 °C, the “Tm of HγD-ox” value [2] is reported as 78 ± 0.1 °C and the “Effect on aggregation/turbidity of HγD-ox” value [3] is reported as “strongly suppressed; also recorded: potently inhibited aggregation”.
